Numbers after ± are expanded uncertainties.

The first data set in a line: molar heat capacity at constant pressure. The settings on record: 296.2 K; 101.33 kPa; Liquid; Small sample (50 mg) DSC.
On to `CCCCn1cc[n+](C)c1.N#C[S-]` [1-butyl-3-methylimidazolium thiocyanate], for which the “molar heat capacity at constant pressure” value is on record as 319.63 ± 51 J/K/mol.
Still for that read-out and setting: the figure for `CCn1cc[n+](C)c1.N#CN=C=[N-]` [1-ethyl-3-methylimidazolium dicyanamide] is 323.76 ± 52 J/K/mol; for `CCn1cc[n+](C)c1.N#C[C-](C#N)C#N` [1-ethyl-3-methyl-1H-imidazolium tricyanomethanide] it is 357.18 ± 57 J/K/mol; for `CCn1cc[n+](C)c1.N#C[S-]` [1-ethyl-3-methylimidazolium thiocyanate] it is 284.51 ± 46 J/K/mol.
Still for that read-out and setting: to `CCCCn1cc[n+](C)c1.N#CN=C=[N-]` [1-butyl-3-methylimidazolium dicyanamide] belongs 359.41 ± 58 J/K/mol.

Still in this data set, the particulars now being: 300.2 K; 101.33 kPa; Liquid; Small sample (50 mg) DSC.
Regarding `CCCCn1cc[n+](C)c1.N#C[S-]` [1-butyl-3-methylimidazolium thiocyanate], the “molar heat capacity at constant pressure” value was 319.63 ± 51 J/K/mol.
For `CCn1cc[n+](C)c1.N#CN=C=[N-]` [1-ethyl-3-methylimidazolium dicyanamide], the “molar heat capacity at constant pressure” value is 325.88 ± 52 J/K/mol.
For `CCn1cc[n+](C)c1.N#C[C-](C#N)C#N` [1-ethyl-3-methyl-1H-imidazolium tricyanomethanide], the “molar heat capacity at constant pressure” value is on record as 360.2 ± 58 J/K/mol.
On the same count and under the same terms, to `CCn1cc[n+](C)c1.N#C[S-]` [1-ethyl-3-methylimidazolium thiocyanate] belongs 284.17 ± 46 J/K/mol; to `CCCCn1cc[n+](C)c1.N#CN=C=[N-]` [1-butyl-3-methylimidazolium dicyanamide], 361.87 ± 58 J/K/mol.

The same data set, now with this note: 304.2 K; 101.33 kPa; Liquid; Small sample (50 mg) DSC.
For `CCCCn1cc[n+](C)c1.N#C[S-]` [1-butyl-3-methylimidazolium thiocyanate], the “molar heat capacity at constant pressure” value is recorded as 320.22 ± 51 J/K/mol.
Still for that read-out and setting: the figure for `CCn1cc[n+](C)c1.N#CN=C=[N-]` [1-ethyl-3-methylimidazolium dicyanamide] is 328.01 ± 53 J/K/mol; for `CCn1cc[n+](C)c1.N#C[C-](C#N)C#N` [1-ethyl-3-methyl-1H-imidazolium tricyanomethanide] it is 362.41 ± 58 J/K/mol.
Regarding `CCn1cc[n+](C)c1.N#C[S-]` [1-ethyl-3-methylimidazolium thiocyanate], the “molar heat capacity at constant pressure” value amounted to 285.18 ± 46 J/K/mol.
Still for that read-out and setting: to `CCCCn1cc[n+](C)c1.N#CN=C=[N-]` [1-butyl-3-methylimidazolium dicyanamide] belongs 363.1 ± 58 J/K/mol.

The same data set, now with this note: 308.2 K; 101.33 kPa; Liquid; Small sample (50 mg) DSC.
As for `CCCCn1cc[n+](C)c1.N#C[S-]` [1-butyl-3-methylimidazolium thiocyanate], the “molar heat capacity at constant pressure” value came to 321.21 ± 51 J/K/mol.
Same read-out and setting: the figure for `CCn1cc[n+](C)c1.N#CN=C=[N-]` [1-ethyl-3-methylimidazolium dicyanamide] is 329.96 ± 53 J/K/mol; for `CCn1cc[n+](C)c1.N#C[C-](C#N)C#N` [1-ethyl-3-methyl-1H-imidazolium tricyanomethanide] it is 363.82 ± 58 J/K/mol; for `CCn1cc[n+](C)c1.N#C[S-]` [1-ethyl-3-methylimidazolium thiocyanate] it is 286.2 ± 46 J/K/mol.
On to `CCCCn1cc[n+](C)c1.N#CN=C=[N-]` [1-butyl-3-methylimidazolium dicyanamide], for which the “molar heat capacity at constant pressure” value was found to be 364.34 ± 58 J/K/mol.
Still for that read-out and setting: to `O=S1(=O)CCCC1` [sulfolane] belongs 182.42 ± 29 J/K/mol.

Still in this data set, the particulars now being: 312.2 K; 101.33 kPa; Liquid; Small sample (50 mg) DSC.
Turning to `CCCCn1cc[n+](C)c1.N#C[S-]` [1-butyl-3-methylimidazolium thiocyanate], the “molar heat capacity at constant pressure” value came to 322.98 ± 52 J/K/mol.
On to `CCn1cc[n+](C)c1.N#CN=C=[N-]` [1-ethyl-3-methylimidazolium dicyanamide], for which the “molar heat capacity at constant pressure” value worked out at 332.44 ± 53 J/K/mol.
The same measure, in the same setting: to `CCn1cc[n+](C)c1.N#C[C-](C#N)C#N` [1-ethyl-3-methyl-1H-imidazolium tricyanomethanide] belongs 365.83 ± 59 J/K/mol.
On to `CCn1cc[n+](C)c1.N#C[S-]` [1-ethyl-3-methylimidazolium thiocyanate], for which the “molar heat capacity at constant pressure” value came out at 287.89 ± 46 J/K/mol.
On the same count and under the same terms, to `CCCCn1cc[n+](C)c1.N#CN=C=[N-]` [1-butyl-3-methylimidazolium dicyanamide] belongs 365.98 ± 59 J/K/mol.
On the same count and under the same terms, the figure for `O=S1(=O)CCCC1` [sulfolane] is 183.5 ± 29 J/K/mol.

The data set is the same for the next values; noted with them: 316.2 K; 101.33 kPa; Liquid; Small sample (50 mg) DSC.
Consider `CCCCn1cc[n+](C)c1.N#C[S-]` [1-butyl-3-methylimidazolium thiocyanate], for which the “molar heat capacity at constant pressure” value was determined as 324.36 ± 52 J/K/mol.
On the same count and under the same terms, the figure for `CCn1cc[n+](C)c1.N#CN=C=[N-]` [1-ethyl-3-methylimidazolium dicyanamide] is 334.21 ± 54 J/K/mol; for `CCn1cc[n+](C)c1.N#C[C-](C#N)C#N` [1-ethyl-3-methyl-1H-imidazolium tricyanomethanide] it is 367.44 ± 59 J/K/mol.
Still for that read-out and setting: to `CCn1cc[n+](C)c1.N#C[S-]` [1-ethyl-3-methylimidazolium thiocyanate] belongs 289.25 ± 47 J/K/mol.
In the case of `CCCCn1cc[n+](C)c1.N#CN=C=[N-]` [1-butyl-3-methylimidazolium dicyanamide], the “molar heat capacity at constant pressure” value is on record as 367.21 ± 59 J/K/mol.
With `O=S1(=O)CCCC1` [sulfolane], the “molar heat capacity at constant pressure” value is recorded as 184.7 ± 30 J/K/mol.

The same data set, now with this note: 320.2 K; 101.33 kPa; Liquid; Small sample (50 mg) DSC.
Take `CCCCn1cc[n+](C)c1.N#C[S-]` [1-butyl-3-methylimidazolium thiocyanate]: the “molar heat capacity at constant pressure” value worked out at 325.55 ± 52 J/K/mol.
The same measure, in the same setting: the figure for `CCn1cc[n+](C)c1.N#CN=C=[N-]` [1-ethyl-3-methylimidazolium dicyanamide] is 335.81 ± 54 J/K/mol.
On the same count and under the same terms, the figure for `CCn1cc[n+](C)c1.N#C[C-](C#N)C#N` [1-ethyl-3-methyl-1H-imidazolium tricyanomethanide] is 368.85 ± 59 J/K/mol; for `CCn1cc[n+](C)c1.N#C[S-]` [1-ethyl-3-methylimidazolium thiocyanate] it is 290.6 ± 47 J/K/mol.
On the same count and under the same terms, to `CCCCn1cc[n+](C)c1.N#CN=C=[N-]` [1-butyl-3-methylimidazolium dicyanamide] belongs 368.65 ± 59 J/K/mol.
As for `O=S1(=O)CCCC1` [sulfolane], the “molar heat capacity at constant pressure” value is listed as 185.9 ± 30 J/K/mol.

The same data set, now with this note: 324.2 K; 101.33 kPa; Liquid; Small sample (50 mg) DSC.
Consider `CCCCn1cc[n+](C)c1.N#C[S-]` [1-butyl-3-methylimidazolium thiocyanate], for which the “molar heat capacity at constant pressure” value is given as 326.93 ± 52 J/K/mol.
Still for that read-out and setting: the figure for `CCn1cc[n+](C)c1.N#CN=C=[N-]` [1-ethyl-3-methylimidazolium dicyanamide] is 337.76 ± 54 J/K/mol; for `CCn1cc[n+](C)c1.N#C[C-](C#N)C#N` [1-ethyl-3-methyl-1H-imidazolium tricyanomethanide] it is 370.26 ± 60 J/K/mol; for `CCn1cc[n+](C)c1.N#C[S-]` [1-ethyl-3-methylimidazolium thiocyanate] it is 292.12 ± 47 J/K/mol.
Consider `CCCCn1cc[n+](C)c1.N#CN=C=[N-]` [1-butyl-3-methylimidazolium dicyanamide], for which the “molar heat capacity at constant pressure” value is recorded as 370.08 ± 60 J/K/mol.
As to `O=S1(=O)CCCC1` [sulfolane], the “molar heat capacity at constant pressure” value amounted to 187.11 ± 30 J/K/mol.

Staying with this data set, now noted: 328.2 K; 101.33 kPa; Liquid; Small sample (50 mg) DSC.
Regarding `CCCCn1cc[n+](C)c1.N#C[S-]` [1-butyl-3-methylimidazolium thiocyanate], the “molar heat capacity at constant pressure” value came out at 329.1 ± 53 J/K/mol.
For the compound `CCn1cc[n+](C)c1.N#CN=C=[N-]` [1-ethyl-3-methylimidazolium dicyanamide], the “molar heat capacity at constant pressure” value is listed as 340.24 ± 55 J/K/mol.
On the same count and under the same terms, to `CCn1cc[n+](C)c1.N#C[C-](C#N)C#N` [1-ethyl-3-methyl-1H-imidazolium tricyanomethanide] belongs 372.07 ± 60 J/K/mol; to `CCn1cc[n+](C)c1.N#C[S-]` [1-ethyl-3-methylimidazolium thiocyanate], 293.98 ± 47 J/K/mol; to `CCCCn1cc[n+](C)c1.N#CN=C=[N-]` [1-butyl-3-methylimidazolium dicyanamide], 372.14 ± 60 J/K/mol.
`O=S1(=O)CCCC1` [sulfolane]: the “molar heat capacity at constant pressure” value turned out to be 188.79 ± 30 J/K/mol.

Staying with this data set, now noted: 332.2 K; 101.33 kPa; Liquid; Small sample (50 mg) DSC.
In the case of `CCCCn1cc[n+](C)c1.N#C[S-]` [1-butyl-3-methylimidazolium thiocyanate], the “molar heat capacity at constant pressure” value is listed as 331.27 ± 53 J/K/mol.
Consider `CCn1cc[n+](C)c1.N#CN=C=[N-]` [1-ethyl-3-methylimidazolium dicyanamide], for which the “molar heat capacity at constant pressure” value was 342.89 ± 55 J/K/mol.
On the same count and under the same terms, to `CCn1cc[n+](C)c1.N#C[C-](C#N)C#N` [1-ethyl-3-methyl-1H-imidazolium tricyanomethanide] belongs 374.49 ± 60 J/K/mol; to `CCn1cc[n+](C)c1.N#C[S-]` [1-ethyl-3-methylimidazolium thiocyanate], 296.18 ± 48 J/K/mol.
In the case of `CCCCn1cc[n+](C)c1.N#CN=C=[N-]` [1-butyl-3-methylimidazolium dicyanamide], the “molar heat capacity at constant pressure” value was found to be 374.39 ± 60 J/K/mol.
On the same count and under the same terms, to `O=S1(=O)CCCC1` [sulfolane] belongs 190.47 ± 31 J/K/mol.

Staying with this data set, now noted: 336.2 K; 101.33 kPa; Liquid; Small sample (50 mg) DSC.
With `CCCCn1cc[n+](C)c1.N#C[S-]` [1-butyl-3-methylimidazolium thiocyanate], the “molar heat capacity at constant pressure” value was determined as 333.64 ± 54 J/K/mol.

These data come from the NIST ThermoML archive (doi:10.1021/je400140n).
